Measured values from patent US8263353B2, “Method for detecting autoprocessed, secreted PCSK9” (Merck Sharp & Dohme Corp., priority 2007, dated 2012).

Experiments:
Assay type in all cases: cell-based
PCSK9 processing [1] = target: T1, PCSK9 processing (Homo sapiens, UniProt Q8NBP7, D186A/G670E/V474I); test: Western blot of HEK293 cells stably expressing PCSK9 mutant D186A; details: HEK293 stable cell line; FIG. 11A
T1 construct: expressed in transfected cells
Experimental: (§1) Cells carrying vector alone (pcDNA3.1) or vector plus PCSK9 (PCSK9-152 FLAG-V5/His and PCSK9-152 FLAG-V5/His-S386A) were plated in 1×DMEM containing 1 mg/ml G418 supplemented with 10% FBS. After 24 hr, the media was switched to DMEM media lacking serum. After an additional 6 hr, the media was removed and the cells were lysed in RIPA buffer (TEKNOVA) plus Complete protease inhibitor cocktail (Roche). Protein concentration was assayed with BCA Protein Assay Kit (Pierce). […] of proteins from lysate or 15 μl media were loaded on 10-20% Tris-Glycine gels (Invitrogen). Following transfer, membranes were successively incubated with 1:5000 anti-VS (Invitrogen), 1:3000 anti-FLAG ml (Sigma-Aldrich Co.) or 1:3000 anti_FLAG m2 (Sigma-Aldrich Co.) primary antibody and 1:3000 anti-mouse IgG (H+L) alkaline phosphatase conjugate (Promega). Bands were subsequently detected using a 1-step NBT/BCIP Kit (Pierce) according to manufacturer's instructions.
420:55-67. […] Media from the D186A stable cell line was purified using column chromatography (as described) to obtain both purified nonprocessed and processed D186A (FIG. 11B). Similar to the WT PCSK9 protein processed D186A retains the pro domain after several column purifications (FIG. 11B).

PCSK9 processing [2] = target: T2, PCSK9 processing (Homo sapiens, UniProt Q8NBP7, G670E/V474I); test: Co-transfection of PCSK9 pro domain with wild type V5/His-tagged PCSK9, western blot of cell lysate and media; details: co-transfected pro domain
T2 construct: expressed in transfected cells
Experimental: FIGS. 10A and 10B illustrate inhibition of PSCK9 processing through co-transfection of PCSK9 pro domain. The figure illustrates the inhibition of PCSK9 processing is similar whether the domain is untagged, or tagged at the N-terminus with either an HA or His tag. […] The lanes are in order wild-type; wild-type; pro domain; HA pro domain; His pro domain.
as §1, with “instructions. […]” for “instructions.”

[3] = tested on: diI-LDL uptake in HEK293 cells; test: DiI-LDL uptake assay (PCSK9-dependent LDL-uptake assay)
Experimental: Blood for LDL isolation was obtained from healthy human volunteers. Blood (200 ml) was collected in EDTA tubes and spun at 15,000 rpm for 15 min at 4° C. Plasma density was adjusted to 1.02 g/ml with sodium bromide and the tubes were centrifuged at 45,000 rpm in Ti70 ultracentrifuge rotor for 20 hr. The VLDL layer was removed and the bottom layer was recalibrated to a density of 1.063 g/ml with sodium bromide. The tubes were again centrifuged at 45,000 rpm in Ti70 rotor for 72 hr. The LDL layer was removed and dialysed against PBS pH 7.4 and 0.5 M EDTA. The final protein concentration was determined using a BCA Protein Assay Kit. LDL was labeled with a fluorescent DiI particle (Molecular Probes). A stock solution containing 3 mg of DiI dissolved in 1 ml of dimethyl sulfoxide (DMSO) was prepared. This stock solution of D11 was added to LDL at a final concentration of 135 μg of DiI to 1 ml of LDL. The labeling reaction was incubated at 37° C. for 24 hr in the dark followed by LDL isolation as mentioned above.
HEK293 cells stably expressing the vector pcDNA3.1 alone were plated in a 96-well poly D-lysine coated plate (Corning) at a density of 30,000 cells/well in 1×DMEM, containing 1 mg/ml G418 and 10% FBS (HEK293). A similar plating protocol was followed for HepG2 and CHO cells except that G418 was not added to the media. After 24 hr, the media was switched to DMEM media lacking serum. After 18 hr, the media was removed and the cells were washed with OptiMEM (Invitrogen). Purified PCSK9 protein was added to the cells in 100 μl of mixture B (DMEM containing 10% lipoprotein deficient serum (LPDS) (Intracel) and 10 μg/ml dI-LDL). To measure non-specific binding, 100 μl of mixture B that also contained 400 μg/ml unlabeled LDL was added to control wells. The plates were incubated at 37° C. for 6.5 hours and the cells were washed quickly in Tris-buffered saline (TBS, Biorad) containing 2 mg/ml Bovine Serum Albumin (BSA) (Sigma). The wash step was repeated, but this time the wash buffer was incubated for 2 min with the cells. Last, the cells were quickly washed twice with TBS (without BSA) and lysed in 100 μl RIPA buffer. The lysate was transferred to a 96-well black plate (Thermo Labsystem) and fluorescence was measured using a SpectraMAX tunable spectrofluorometer (Molecular Devices) at an excitation wavelength of 520 nm and an emission wavelength of […] Total cellular protein was measured in each well using a BCA Protein Assay and the fluorescence units were normalized to total protein. The amount of specific LDL uptake (specific counts) is the difference between the total counts measured (in the absence of unlabeled LDL) and the counts measured in the presence of an excess of unlabeled LDL (non-specific background fluorescence). […]

T2 sequence (Q8NBP7 31-692 V474I/G670E): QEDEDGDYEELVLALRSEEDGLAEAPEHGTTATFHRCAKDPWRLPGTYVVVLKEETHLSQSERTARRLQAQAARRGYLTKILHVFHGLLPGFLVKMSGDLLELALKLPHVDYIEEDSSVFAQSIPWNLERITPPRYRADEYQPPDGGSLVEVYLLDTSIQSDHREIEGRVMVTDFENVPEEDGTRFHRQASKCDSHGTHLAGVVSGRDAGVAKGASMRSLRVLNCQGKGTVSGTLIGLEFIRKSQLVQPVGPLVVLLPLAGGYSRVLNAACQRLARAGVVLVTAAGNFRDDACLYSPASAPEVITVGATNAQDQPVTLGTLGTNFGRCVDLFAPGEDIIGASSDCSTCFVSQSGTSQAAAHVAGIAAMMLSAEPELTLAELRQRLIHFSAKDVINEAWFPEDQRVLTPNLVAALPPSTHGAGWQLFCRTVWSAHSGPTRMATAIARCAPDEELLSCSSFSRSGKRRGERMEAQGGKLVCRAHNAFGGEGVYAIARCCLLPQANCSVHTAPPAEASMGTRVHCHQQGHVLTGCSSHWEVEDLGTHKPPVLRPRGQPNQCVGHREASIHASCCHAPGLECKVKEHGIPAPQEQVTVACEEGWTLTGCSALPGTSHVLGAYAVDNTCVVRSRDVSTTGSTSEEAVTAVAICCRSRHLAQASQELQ
T1 sequence (Q8NBP7 31-692 D186A/V474I/G670E): as the sequence (Q8NBP7 31-692 V474I/G670E) above, with D156A counted along it

D186A PCSK9 mutant: Human PCSK9 single catalytic-triad mutant D186A stably expressed in HEK293 cells
extent of processing (PCSK9 processing [1]): 10-20%

PCSK9 pro domain: Human PCSK9 pro domain (SEQ ID NO: 20, residues 31-152) expressed from co-transfected nucleic acid
amount of processed PCSK9 in cell lysate compared to cells expressing wild type alone (PCSK9 processing [2]; cell lysate, FIG. 10A): reduced
processed PCSK9 detected in the media (PCSK9 processing [2]; media, FIG. 10B): less processed PCSK9 was detected

nonprocessed D186A: Purified secreted, nonprocessed form of human PCSK9 mutant D186A (SEQ ID NO: 34)
fold less active than processed PCSK9 in PCSK9-dependent LDL uptake ([3]; FIG. 11C): ~20 fold
activity in PCSK9-dependent LDL-uptake assay ([3]; HEK293 cells, purified protein, FIG. 11C): only weakly active

processed D186A: Purified secreted, autoprocessed form of human PCSK9 catalytic-triad mutant D186A, retaining the pro domain
fold weaker in potency than WT PCSK9 ([3]; HEK293 cells): approximately 4 fold
EC50 ([3]; HEK293 cells, purified protein, FIG. 11C, read-out: EC50 (amount of PCSK9 protein required for 50% inhibition of diI-LDL uptake)): 189 nM
